{"source": "patent US11819578B2", "about": "“Nanofiber scaffolds” (Trustees of Boston University, priority 2021, dated 2023)", "key": {"[1]": {"experiment": "Release of small molecule cargo loaded in the PCL fibers", "assay_type": "physicochemical", "description": "FIG. 21 depicts FITC (50-500 ng) released from the fibers over the course of 90 days. FITC was loaded in the mixture of the PCL solution similar to grazoprevir loaded meshes. (n=4)\nDoxorubicin was loaded in the mixture of the PCL solution similar to grazoprevir loaded meshes. (n=3)\nWhen used with primary CD8+ HER2-targeted NS3 CAR T cells with the same grazoprevir-dependent CARs, the […] were excited (CD69 expression) when co-cultured with the meshes and HER2-expression NALM6 cells (FIG. 19).\nThe meshes ability to release doxorubicin over time was characterized as a functional delivery method for chemotherapeutic drugs."}, "[2]": {"conditions": "cited from earlier work"}}, "data": [{"smiles": "COc1cccc2c1C(=O)c1c(O)c3c(c(O)c1C2=O)C[C@@](O)(C(=O)CO)C[C@@H]3O[C@H]1C[C@H](N)[C@H](O)[C@H](C)O1", "note": "[doxorubicin]", "values": [{"measurement": "period of release from the fibers", "setting": "[1]; 500 ug doxorubicin loaded in the PCL solution, n=3", "value": 28, "unit": "days"}, {"measurement": "release over time in vitro", "setting": "[1]; in vitro, in words", "value": "several weeks to months"}]}, {"smiles": "O=C1OC2(c3ccc(O)cc3Oc3cc(O)ccc32)c2ccc(N=C=S)cc21", "note": "[FITC]", "values": [{"measurement": "log P", "setting": "[2]", "value": 4.8}, {"measurement": "period of release from the fibers", "setting": "[1]; FITC 50-500 ng loaded in the PCL solution, n=4", "value": 90, "unit": "days"}]}, {"smiles": "C=C[C@@H]1C[C@]1(NC(=O)[C@@H]1C[C@@H]2CN1C(=O)[C@H](C(C)(C)C)NC(=O)O[C@@H]1C[C@H]1CCCCCc1nc3ccc(OC)cc3nc1O2)C(=O)NS(=O)(=O)C1CC1.O", "note": "[grazoprevir]", "values": [{"measurement": "log P", "setting": "[2]", "value": 4.7}]}]}
